Assay results: ChEMBL document CHEMBL1130554, “BMS-200475, a novel carbocyclic 2-deoxyguanosine analog with potent and selective anti-hepatitis B virus activity in vitro” (Bioorg Med Chem Lett, 1997)

Key:
HepG2 [1] = assay: Tested for the effective concentration required to inhibit HBV in HepG2.2.15 human liver cells; type: functional, cell-based
WI-38 [2] = assay: Tested for effective concentration required to inhibit herpes simplex virus type 1 (HSV-1) in WI-38 cells; type: functional, cell-based; conditions: Homo sapiens
[3] = Tested for effective concentration required to inhibit of influenza virus in MDBK cells; type: functional, cell-based, Bos taurus
Hepatitis B virus [4] = assay: Tested for cytotoxic concentration against hepatitis B virus; type: functional
[5] = Tested for cytotoxic concentration against influenza virus in MDBK cells; type: functional; conditions: Bos taurus
CEM-SS [6] = assay: Tested for effective concentration to inhibit human immunodeficiency virus (HIV) in CEM-SS cells; type: functional, cell-based
HepG2 [7] = assay: Tested for the cytotoxicity against hepatitis B virus (HBV) in HepG2.2.15 cells; type: functional; conditions: Homo sapiens
WI-38 [8] = assay: Tested for cytotoxic concentration against herpes simplex virus type 1 (HSV-1) in WI-38 cells; type: functional; conditions: Homo sapiens
WI-38 [9] = assay: Tested for cytotoxic concentration against varicella zoster virus (VZV) in WI-38 cells; type: functional; conditions: Homo sapiens
HFF = assay: Tested for effective concentration required to inhibit human cytomegalovirus (HCMV) in HFF cells; type: functional, cell-based
WI-38 [10] = assay: Tested for effective concentration required to inhibit varicella zoster virus (VZV) in WI-38 cells; 30-60; type: functional, cell-based; conditions: Homo sapiens
CEM-SS [11] = assay: Tested for cytotoxic concentration against human immunodeficiency virus (HIV) in CEM-SS cells; type: functional
Hepatitis B virus [12] = assay: Tested effective dose against hepatitis B virus in vitro; type: functional; conditions: read-out: ED50 (the source's name)

With `C=C1[C@H](CO)[C@@H](O)C[C@@H]1n1cc(C)c(=O)[nH]c1=O` as the compound, how does the EC50 (HepG2 [1]) read?
Its EC50 is over 100000 nM.

Which EC50 (HepG2 [1]) does the source give for `C=C1[C@H](CO)[C@@H](O)C[C@@H]1n1cc(I)c(=O)[nH]c1=O` here?
The EC50 was 10500 nM.

Which EC50 (HepG2 [1]) does the source give for `C=C1[C@H](CO)[C@@H](O)C[C@@H]1n1cnc2c(N)ncnc21` here?
Its EC50 is 128 nM.

For `Nc1nc(O)c2ncn([C@@H]3C[C@H](CO)[C@@H](O)C3)c2n1`, which EC50 (HepG2 [1]) is on record?
Its EC50 is 50 nM.

Which EC50 (HepG2 [1]) does the source give for `C=C1[C@@H](CO)[C@H](O)C[C@H]1n1cnc2c(O)nc(N)nc21` here?
Its EC50 is 100000 nM.

Which EC50 (WI-38 [2]) does the source give for `C=C1[C@H](CO)[C@@H](O)C[C@@H]1n1cnc2c(=O)[nH]c(N)nc21` [ENTECAVIR] here?
Its EC50 is at least 32 µM.

And the EC50 [3]?
Its EC50 is over 80 µM.

And the CC50 (Hepatitis B virus [4])?
The CC50 was 21 µM.

What about the CC50 [5] of the same compound?
The CC50 was 78 µM.

What about the EC50 (CEM-SS [6]) of the same compound?
The EC50 was over 10 µM.

And the CC50 (HepG2 [7])?
The CC50 was 30 µM.

And the CC50 (WI-38 [8])?
Its CC50 is over 90 µM.

And the CC50 (WI-38 [9])?
Its CC50 is 120 µM.

And the EC50 (HepG2 [1])?
Its EC50 is 3 nM.

And the EC50 (HFF)?
The EC50 was 15 µM.

And the EC50 (WI-38 [10])?
The EC50 was 30 µM.

And the CC50 (CEM-SS [11])?
Its CC50 is 21 µM.

And the EC50 (Hepatitis B virus [12])?
Its EC50 is 3 nM.

With `Nc1ccn([C@@H]2CS[C@H](CO)O2)c(=O)n1` [LAMIVUDINE] as the compound, how does the EC50 (HepG2 [1]) read?
Its EC50 is 200 nM.

For `Nc1nc(O)c2ncn(CCC(CO)CO)c2n1` [PENCICLOVIR], which EC50 (HepG2 [1]) is on record?
The EC50 was at least 100000 nM.
